# Patent publication US9642874B2, “Compositions of selenoorganic compounds and methods of use thereof” (Alltech, Inc., priority 2014, dated 2017)
# Test system: G6pc
# Experiment: G6pc mRNA expression (QRT-PCR) in AML-12 cells
# Type: cell-based, mouse
# Settings: insulin 10 and 100 nM
# Method: For RNA analysis of insulin receptor (Insr), insulin like growth factor receptor (Igf1r), and Glucose-6-Phosphatase (G6pc), AML-12 cells were amplified in ITS, Dex and FBS-containing DMEM/F12 media, and cultured on 24-well (6.7×10^4 cells/well) plates in 10% FBS ITS-free DMEM/F12 media with or without Dex overnight. These cells were treated with control (water) or various compounds (diluted in 10% FBS ITS-free DMEM/F12 media with or without Dex) for 6 hours, 24 hours, or 48 hours.
# In some experiments, the AML-12 cells were washed twice with PBS after the compound treatments for 24 hours, and then incubated with selenium compounds (150 or 300 ppb of each compound) in the presence or absence of insulin (10 or 100 nM), 0.1 mM 8-CPT (Sigma), or 0.5 μM Dex in serum-free, glucose/phenol red-free DMEM media supplemented with 20 mM lactose and 2 mM pyruvate, and 15 mM HEPES (glucose-production media) for another 6 hours. After treatments, cell media were collected and subjected to glucose assays using Abcam glucose assay kit according to the manufacturer's protocol. […]
# Total RNA from these cells was isolated using Trizol (Invitrogen) according to the manufacturer's protocol, and then incubated with DNase I to remove any potential contaminated genomic DNA. […] Three to six samples were analyzed in each treatment group. […]
substance,measurement,setting,value
"insulin: insulin (10 or 100 nM, Sigma) used as comparator and cotreatment",G6pc expression,"6 hours, FBS/ITS/Dex-free media",significantly inhibited G6pc expression
same,8-CPT/Dex-induced G6pc expression,vs 8-CPT/Dex group,significantly decreased 8-CPT/Dex-induced G6pc expression
